Drawing on PubChem BioAssay (NCI), this text covers TGI and GI50 for eleven compounds.

Test systems include NCI-H522 lung; UO-31 renal; RXF 393 renal; UACC-257 melanoma; KM12 colon; NCI-H23 lung; NCI-H460 lung; SK-MEL-5 melanoma; OVCAR-8 ovarian; DU-145 prostate.
What all share (experiment): inhibition of tumour cell growth, NCI panel, 48 h

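Grown in 96-well plates, cells were treated for 48 hours with each compound at five concentrations. Insufficient inhibition: endpoint recorded as highest concentration tested. GI50 = concentration required for 50% inhibition of growth. The concentration for full growth arrest is given as TGI.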

On to `O=C(N/C(=C\c1cc(Cl)ccc1Cl)c1nc2ccc(Cl)cc2[nH]1)c1ccccc1`, for which the TGI stood at 25 µM in the experiment on NCI-H522 lung; 24.4 µM with UO-31 renal; 29.2 µM with RXF 393 renal; 28.3 µM in the experiment on UACC-257 melanoma; 29.4 µM with KM12 colon; 28.7 µM in the experiment with NCI-H23 lung. The TGI in the experiment on NCI-H460 lung was determined as 30.5 µM; in the experiment with SK-MEL-5 melanoma, 25.9 µM; with OVCAR-8 ovarian it was 31.6 µM.
On to `CCN(CC)C(=O)COc1cc2c(O)c3c(O)c(C)c4c(c13)C(=O)C(C)(OC=CC(OC)C(C)C(OC(C)=O)C(C)C(O)C(C)C(O)C(C)C=CC=C(C)C(=O)N2)O4` (centres undefined), for which the TGI in the experiment with UO-31 renal, in the experiment with RXF 393 renal, with UACC-257 melanoma, in the experiment on KM12 colon, in the experiment on DU-145 prostate and with NCI-H23 lung was > 100 µM in each case. For the same compound, the TGI with NCI-H460 lung, with SK-MEL-5 melanoma and in the experiment with OVCAR-8 ovarian was > 100 µM each time.
For `O=C(O)COc1ccc(C(=O)/C(SS/C(C(=O)c2ccc(OCC(=O)O)c(Cl)c2Cl)=C2\C=C(c3ccc(Br)cc3)SS2)=C2/C=C(c3ccc(Br)cc3)SS2)c(Cl)c1Cl`, the TGI with NCI-H522 lung was 3.95 µM; in the experiment with UO-31 renal, 20.2 µM; with UACC-257 melanoma, > 67.4 µM; in the experiment on KM12 colon it was 28.4 µM; in the experiment with DU-145 prostate, > 100 µM; with NCI-H23 lung it was 21.3 µM. The TGI in the experiment on NCI-H460 lung is > 71.8 µM; with SK-MEL-5 melanoma, 43.1 µM; in the experiment with OVCAR-8 ovarian it was > 76 µM.
`COC(=O)/C(C#N)=C1\CCc2ccccc21`: the TGI in the experiment on NCI-H522 lung, with UO-31 renal, in the experiment on RXF 393 renal, in the experiment on UACC-257 melanoma, with KM12 colon and in the experiment with NCI-H23 lung was > 100 µM throughout. The TGI in the experiment on NCI-H460 lung, in the experiment with SK-MEL-5 melanoma and with OVCAR-8 ovarian was > 100 µM in each case.
With `O=C(NCC(=O)N1CCOC1=O)OCc1ccccc1`, the TGI in the experiment on NCI-H522 lung, with UO-31 renal, in the experiment with RXF 393 renal, in the experiment on UACC-257 melanoma, with KM12 colon and with NCI-H23 lung was > 100 µM throughout. Further, the TGI in the experiment on NCI-H460 lung, in the experiment on SK-MEL-5 melanoma and in the experiment with OVCAR-8 ovarian was > 100 µM throughout.
`Brc1cccc(-c2cc(-c3ccc4nccnc4c3)[nH]n2)c1`: the GI50 was 0.412 µM in the experiment on NCI-H522 lung; 1.9 µM with UO-31 renal; 0.153 µM in the experiment on KM12 colon; 1.09 µM in the experiment on DU-145 prostate; 1.33 µM in the experiment on NCI-H23 lung; 0.729 µM in the experiment on NCI-H460 lung. The figures for the GI50 with SK-MEL-5 melanoma and in the experiment with OVCAR-8 ovarian were 0.783 µM and 1.39 µM, respectively. For the same compound, the TGI in the experiment with NCI-H522 lung is > 250 µM; with UO-31 renal, > 250 µM; in the experiment on UACC-257 melanoma, > 250 µM; in the experiment with KM12 colon it was > 94.7 µM; in the experiment on DU-145 prostate, > 200 µM; in the experiment on NCI-H23 lung it was > 250 µM. For the same compound, the TGI was > 60 µM in the experiment on NCI-H460 lung, 11.7 µM with SK-MEL-5 melanoma and > 250 µM in the experiment with OVCAR-8 ovarian.
For the compound `COc1cc(C2CC(=O)Nc3c2cc(Br)c2ccccc32)cc(Br)c1OC` (centres undefined), the GI50 with RXF 393 renal was 1.73 µM; in the experiment on UACC-257 melanoma, 12.6 µM; in the experiment with DU-145 prostate it was 6.38 µM; in the experiment with NCI-H23 lung it was 4.37 µM; in the experiment on NCI-H460 lung it was 1.66 µM; in the experiment with SK-MEL-5 melanoma, 2.82 µM. Moreover, in the experiment on OVCAR-8 ovarian, the GI50 is 1.74 µM. Also, the TGI with RXF 393 renal was 3.93 µM; in the experiment on UACC-257 melanoma, > 100 µM; in the experiment with DU-145 prostate it was > 100 µM; with NCI-H23 lung, > 100 µM; with NCI-H460 lung it was 5 µM; in the experiment on SK-MEL-5 melanoma, > 100 µM. Further, the TGI in the experiment on OVCAR-8 ovarian was > 100 µM.
`COc1ccc2c(c1)C(=O)c1c-2c(N2CCNCC2)nc2ccccc12`: the GI50 is 3.95 µM in the experiment with NCI-H522 lung; 2.29 µM in the experiment with UO-31 renal; 2.38 µM in the experiment on UACC-257 melanoma; 2.01 µM with KM12 colon; 1.89 µM in the experiment on DU-145 prostate; 0.614 µM with NCI-H460 lung. For the same compound, the GI50 with SK-MEL-5 melanoma was 11.3 µM; in the experiment with OVCAR-8 ovarian, 5.81 µM. Moreover, the TGI is 17 µM in the experiment with NCI-H522 lung; 6.66 µM in the experiment with UO-31 renal; 5.11 µM with UACC-257 melanoma; 4.84 µM in the experiment with KM12 colon; 4.73 µM in the experiment with DU-145 prostate; 1.98 µM with NCI-H460 lung. Also, the TGI in the experiment on SK-MEL-5 melanoma is 24.7 µM; with OVCAR-8 ovarian it was 23.4 µM.
For `C#C[C@H]1CCCCCC1O` (some centres undefined), the TGI in the experiment with NCI-H522 lung, with UO-31 renal, in the experiment with RXF 393 renal, in the experiment with UACC-257 melanoma, in the experiment with KM12 colon and in the experiment with NCI-H23 lung was > 100 µM in each case. Further, the TGI with NCI-H460 lung, in the experiment on SK-MEL-5 melanoma and in the experiment on OVCAR-8 ovarian was > 100 µM throughout.
For `Nc1cc2cccc[n+]2c2cccc(Cl)c12`, the GI50 in the experiment on NCI-H522 lung is 16.2 µM; in the experiment on UO-31 renal, 61.4 µM; with UACC-257 melanoma it was 11.3 µM; in the experiment with KM12 colon, 4.1 µM; with DU-145 prostate, 46.4 µM; in the experiment on NCI-H23 lung, 14.3 µM. For the same compound, the GI50 is 20.2 µM in the experiment on NCI-H460 lung, 4.94 µM in the experiment with SK-MEL-5 melanoma and 24.1 µM in the experiment on OVCAR-8 ovarian. Besides, the TGI in the experiment with NCI-H522 lung was 78 µM; in the experiment with UACC-257 melanoma it was 27.4 µM; with KM12 colon it was 65.2 µM; in the experiment on NCI-H23 lung, 65.6 µM; in the experiment with NCI-H460 lung, 58.7 µM; in the experiment with SK-MEL-5 melanoma it was 17.8 µM.
As to `CC(=O)O.CC(=O)O.CC(=O)O.CC(=O)O.[Rh].[Rh]`, the GI50 with UO-31 renal is 20.6 µM; with RXF 393 renal, 10.5 µM; in the experiment on UACC-257 melanoma, 19.5 µM; in the experiment on KM12 colon it was 34.8 µM; in the experiment with DU-145 prostate, 47.9 µM; in the experiment with NCI-H23 lung it was 32.1 µM. Further, the GI50 in the experiment on NCI-H460 lung was 37.4 µM; with SK-MEL-5 melanoma it was 18.6 µM; in the experiment with OVCAR-8 ovarian it was 27.6 µM. Besides, the TGI in the experiment with UO-31 renal was 59 µM; in the experiment on RXF 393 renal it was 78.3 µM; with UACC-257 melanoma, 64.8 µM; with KM12 colon it was > 100 µM; in the experiment with DU-145 prostate it was > 100 µM; in the experiment with NCI-H23 lung, > 100 µM. The TGI with NCI-H460 lung is > 100 µM; in the experiment with SK-MEL-5 melanoma, 37 µM; with OVCAR-8 ovarian it was > 100 µM.
